Assay results as given in article PMC5775428, “Towards an experimental classification system for membrane active peptides” (Scientific Reports, 2018).
Where two headings read alike, the source gives them in different places.

Assays:
[1] = system: Pseudomonas syringae pv. tabaci
Description: (§1) Antimicrobial activity was tested against three categories of human and plant pathogenic microorganisms: Gram-positive (Bacillus subtilis, Bacillus cereus, Staphylococcus aureus), Gram-negative (Escherichia coli, Pseudomonas aeruginosa, Erwinia carotovora, Pseudomonas syringae pv. tabaci, Xanthomonas campestris pv. citri) and yeasts (Candida albicans, Cryptococcus neoformans), as previously reported. […] The full list of peptide MICs was published in an accompanying paper, and is available in the current publication as supplementary dataset (Supplementary dataset 01).
(§2) The determination of the minimum inhibitory concentration (MIC) of peptides was performed as described in “Encrypted Antimicrobial Peptides from Plant Proteins”[7]. Briefly, MICs were determined following protocols M7-A10 and M27-A3 from Clinical & Laboratory Standards Institute (CLSI) for bacteria and yeasts, respectively. Different concentrations of IAPs (0.5 to 256 μM) were tested against several microorganisms in a final volume of 100 µL. Three biological repetitions, with 2 technical replicates each, were performed for each test, on polystyrene flat-bottom 96 wells microplates. The minimum inhibitory concentration (MIC) was defined as the concentration at which no cells were detected when visualized by optical microscopy. Please refer to the literature[7] for further details of the microbiological assays.

Bacillus subtilis = details: Bacillus subtilis; for Minimum inhibitory concentration, Average: average of triplicates
Description: as §1, §2

Candida albicans = details: Candida albicans; for Minimum inhibitory concentration, Average: average of triplicates
Description: as §1, §2

Xanthomonas campestris = details: for Minimum inhibitory concentration, Average: average of triplicates
Description: as §1, §2

Pseudomonas aeruginosa = system: Pseudomonas aeruginosa
Description: as §1, §2

Erwinia carotovora = system: Erwinia carotovora
Description: as §1, §2

Cryptococcus neoformans = details: Cryptococcus neoformans; for Minimum inhibitory concentration, Average: average of triplicates
Description: as §1, §2

Escherichia coli = system: Escherichia coli
Description: as §1, §2

Staphylococcus aureus = system: Staphylococcus aureus
Description: as §1, §2

Bacillus cereus = system: Bacillus cereus
Description: as §1, §2

[2] = Pseudomonas syringae pv. tabaci, CLSI M7-A10, triplicate 1
[3] = Pseudomonas syringae pv. tabaci, average of triplicates
[4] = Pseudomonas syringae pv. tabaci, triplicate 2
[5] = Pseudomonas syringae pv. tabaci, triplicate 3
[6] = CLSI M27-A3, 0.5 to 256 μM tested, triplicate 1, also published in ref 7
[7] = Pseudomonas aeruginosa, CLSI M7-A10, triplicate 1
[8] = Pseudomonas aeruginosa, average of triplicates
[9] = Pseudomonas aeruginosa, triplicate 2
[10] = Pseudomonas aeruginosa, triplicate 3
[11] = Erwinia carotovora, CLSI M7-A10, triplicate 1
[12] = Erwinia carotovora, average of triplicates
[13] = Erwinia carotovora, triplicate 2
[14] = Erwinia carotovora, triplicate 3
[15] = Escherichia coli, CLSI M7-A10, triplicate 1
[16] = Escherichia coli, average of triplicates
[17] = Staphylococcus aureus, CLSI M7-A10, triplicate 1
[18] = Staphylococcus aureus, average of triplicates
[19] = Staphylococcus aureus, triplicate 2
[20] = Staphylococcus aureus, triplicate 3
[21] = Bacillus cereus, CLSI M7-A10, triplicate 1
[22] = Bacillus cereus, average of triplicates

Sequence	Minimum inhibitory concentration [1, 2]	Minimum inhibitory concentration, Average [1, 3]	Minimum inhibitory concentration [1, 4]	Minimum inhibitory concentration [1, 5]	Minimum inhibitory concentration (Bacillus subtilis; CLSI M7-A10, triplicate 1)	Minimum inhibitory concentration, Average (Bacillus subtilis)	Minimum inhibitory concentration (Bacillus subtilis; triplicate 2)	Minimum inhibitory concentration (Bacillus subtilis; triplicate 3)	Minimum inhibitory concentration (Candida albicans; [6])	Minimum inhibitory concentration, Average (Candida albicans)	Minimum inhibitory concentration (Candida albicans; triplicate 2)	Minimum inhibitory concentration (Candida albicans; triplicate 3)	Minimum inhibitory concentration (Xanthomonas campestris; CLSI M7-A10, triplicate 1)	Minimum inhibitory concentration, Average (Xanthomonas campestris)	Minimum inhibitory concentration (Xanthomonas campestris; triplicate 2)	Minimum inhibitory concentration (Xanthomonas campestris; triplicate 3)	Minimum inhibitory concentration (Cryptococcus neoformans; CLSI M27-A3, triplicate 1)	Minimum inhibitory concentration, Average (Cryptococcus neoformans)	Minimum inhibitory concentration (Cryptococcus neoformans; triplicate 2)	Minimum inhibitory concentration (Cryptococcus neoformans; triplicate 3)	also measured
GSLHGFMYKYLKTLVLRLY [Zm01]	32 µM	32.0 µM	32 µM	32 µM	8 µM	8.0 µM	8 µM	8 µM	4 µM	6.7 µM	8 µM	8 µM	16 µM	16.0 µM	16 µM	16 µM	4 µM	4.0 µM	4 µM	4 µM	Minimum inhibitory concentration (Pseudomonas aeruginosa; [7]): 16 µM; Minimum inhibitory concentration, Average (Pseudomonas aeruginosa; [8]): 16.0 µM; Minimum inhibitory concentration (Pseudomonas aeruginosa; [9]): 16 µM; Minimum inhibitory concentration (Pseudomonas aeruginosa; [10]): 16 µM; Minimum inhibitory concentration (Erwinia carotovora; [11]): 16 µM; Minimum inhibitory concentration, Average (Erwinia carotovora; [12]): 16.0 µM; Minimum inhibitory concentration (Erwinia carotovora; [13]): 16 µM; Minimum inhibitory concentration (Erwinia carotovora; [14]): 16 µM; Minimum inhibitory concentration (Escherichia coli; [15]): 8 µM; Minimum inhibitory concentration, Average (Escherichia coli; [16]): 13.3 µM; Minimum inhibitory concentration (Escherichia coli; Escherichia coli, triplicate 2): 16 µM; Minimum inhibitory concentration (Escherichia coli; Escherichia coli, triplicate 3): 16 µM; Minimum inhibitory concentration (Staphylococcus aureus; [17]): 16 µM; Minimum inhibitory concentration, Average (Staphylococcus aureus; [18]): 16.0 µM; Minimum inhibitory concentration (Staphylococcus aureus; [19]): 16 µM; Minimum inhibitory concentration (Staphylococcus aureus; [20]): 16 µM; Minimum inhibitory concentration (Bacillus cereus; [21]): 64 µM; Minimum inhibitory concentration, Average (Bacillus cereus; [22]): 44.7 µM; Minimum inhibitory concentration (Bacillus cereus; Bacillus cereus, triplicate 2): 64 µM
GLLFKELQKLIRYQIFIGK [Tc10]	512 µM	512.0 µM	512 µM	512 µM	16 µM	16.0 µM	16 µM	16 µM	64 µM	64.0 µM	64 µM	64 µM	128 µM	128.0 µM	128 µM	128 µM	64 µM	64.0 µM	64 µM	64 µM	Minimum inhibitory concentration (Pseudomonas aeruginosa): 128 µM; Minimum inhibitory concentration, Average (Pseudomonas aeruginosa): 128.0 µM; Minimum inhibitory concentration (Erwinia carotovora; [11]): 512 µM; Minimum inhibitory concentration, Average (Erwinia carotovora; [12]): 512.0 µM; Minimum inhibitory concentration (Erwinia carotovora; [13]): 512 µM; Minimum inhibitory concentration (Erwinia carotovora; [14]): 512 µM; Minimum inhibitory concentration (Escherichia coli; [15]): 16 µM; Minimum inhibitory concentration, Average (Escherichia coli; [16]): 26.7 µM; Minimum inhibitory concentration (Escherichia coli; Escherichia coli, triplicate 2): 32 µM; Minimum inhibitory concentration (Escherichia coli; Escherichia coli, triplicate 3): 32 µM; Minimum inhibitory concentration (Staphylococcus aureus; [17]): 512 µM; Minimum inhibitory concentration, Average (Staphylococcus aureus; [18]): 512.0 µM; Minimum inhibitory concentration (Staphylococcus aureus; [19]): 512 µM; Minimum inhibitory concentration (Staphylococcus aureus; [20]): 512 µM; Minimum inhibitory concentration (Bacillus cereus; [21]): 512 µM; Minimum inhibitory concentration, Average (Bacillus cereus; [22]): 512.0 µM; Minimum inhibitory concentration (Bacillus cereus; Bacillus cereus, triplicate 2): 512 µM; Minimum inhibitory concentration (Bacillus cereus; Bacillus cereus, triplicate 3): 512 µM
IVNHLVKLFDKGLNSIVNLR [Tc05]					64 µM	64.0 µM	64 µM	64 µM	128 µM	128.0 µM	128 µM	128 µM	512 µM	512.0 µM	512 µM	512 µM	128 µM	128.0 µM	128 µM	128 µM	Minimum inhibitory concentration [1]: 512 µM; Minimum inhibitory concentration, Average [1]: 512.0 µM; Minimum inhibitory concentration (Pseudomonas aeruginosa): 512 µM; Minimum inhibitory concentration, Average (Pseudomonas aeruginosa): 512.0 µM; Minimum inhibitory concentration (Erwinia carotovora): 512 µM; Minimum inhibitory concentration, Average (Erwinia carotovora): 512.0 µM; Minimum inhibitory concentration (Escherichia coli): 512 µM; Minimum inhibitory concentration, Average (Escherichia coli): 512.0 µM; Minimum inhibitory concentration (Staphylococcus aureus): 512 µM; Minimum inhibitory concentration, Average (Staphylococcus aureus): 512.0 µM; Minimum inhibitory concentration (Bacillus cereus): 512 µM; Minimum inhibitory concentration, Average (Bacillus cereus): 512.0 µM
GSLHGFMYKYLKNMVLNLF [Tc06]	16 µM	16.0 µM	16 µM	16 µM	16 µM	16.0 µM	16 µM	16 µM	4 µM	4.0 µM	4 µM	4 µM	64 µM	64.0 µM	64 µM	64 µM	8 µM	10.7 µM	8 µM	16 µM	Minimum inhibitory concentration (Pseudomonas aeruginosa; [7]): 16 µM; Minimum inhibitory concentration, Average (Pseudomonas aeruginosa; [8]): 26.7 µM; Minimum inhibitory concentration (Pseudomonas aeruginosa; [9]): 32 µM; Minimum inhibitory concentration (Pseudomonas aeruginosa; [10]): 32 µM; Minimum inhibitory concentration (Erwinia carotovora; [11]): 128 µM; Minimum inhibitory concentration, Average (Erwinia carotovora; [12]): 128.0 µM; Minimum inhibitory concentration (Erwinia carotovora; [13]): 128 µM; Minimum inhibitory concentration (Erwinia carotovora; [14]): 128 µM; Minimum inhibitory concentration (Escherichia coli; [15]): 32 µM; Minimum inhibitory concentration, Average (Escherichia coli; [16]): 32.0 µM; Minimum inhibitory concentration (Escherichia coli; Escherichia coli, triplicate 2): 32 µM; Minimum inhibitory concentration (Escherichia coli; Escherichia coli, triplicate 3): 32 µM; Minimum inhibitory concentration (Staphylococcus aureus; [17]): 8 µM; Minimum inhibitory concentration, Average (Staphylococcus aureus; [18]): 13.3 µM; Minimum inhibitory concentration (Staphylococcus aureus; [19]): 16 µM; Minimum inhibitory concentration (Staphylococcus aureus; [20]): 16 µM; Minimum inhibitory concentration (Bacillus cereus; [21]): 64 µM; Minimum inhibitory concentration, Average (Bacillus cereus; [22]): 64.0 µM; Minimum inhibitory concentration (Bacillus cereus; Bacillus cereus, triplicate 2): 64 µM; Minimum inhibitory concentration (Bacillus cereus; Bacillus cereus, triplicate 3): 64 µM
